Common to all, as to test: Glasshouse assay for herbicidal activity (pre- and post-emergence), percentage phytotoxicity
Holding throughout (type): in vivo

In experiment [1] the test system is Avena fatua (AVEFA). The conditions noted are these: Avena fatua. The procedure, abridged: (§1)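 Seeds were sown in standard soil in pots and grown one day (pre-emergence) or about 12 days (post-emergence) before herbicide application. Plants were kept at 24/18 °C (warm-climate) or 20/16 °C (cool-climate) day/night, 16 h light, 65% humidity, watered twice daily, and damage was scored visually at 15 DAA (POST) or 20 DAA (PRE).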

In experiment [2] the test system is Echinochloa crus-galli (ECHCG). The settings on record: Echinochloa crus-galli. In short, it runs like this: as §1
The test system of experiment [3] is Alopecurus myosuroides (ALOMY). The conditions noted are these: Alopecurus myosuroides. In short, it runs like this: as §1
The test system of experiment [4] is Lolium perenne (LOLPE). The conditions noted are these: Lolium perenne. The procedure, abridged:
as §1

[5] abbreviates: post-emergence, 360 h, POST-emergence, rate 250 g/ha, visual score 15 DAA (100%=total damage, 0%=no damage), read-out: Post-emergence herbicidal activity (percentage phytotoxicity) AVEFA POST.
[6] abbreviates: pre-emergence, 480 h, PRE-emergence, rate 250 g/ha, visual score 20 DAA (100%=total damage, 0%=no damage), read-out: Pre-emergence herbicidal activity (percentage phytotoxicity) AVEFA PRE.
Setting [7] is: post-emergence, 360 h, POST-emergence, rate 250 g/ha, visual score 15 DAA (100%=total damage, 0%=no damage), read-out: Post-emergence herbicidal activity (percentage phytotoxicity) ECHCG POST.
Setting [8] is: pre-emergence, 480 h, PRE-emergence, rate 250 g/ha, visual score 20 DAA (100%=total damage, 0%=no damage), read-out: Pre-emergence herbicidal activity (percentage phytotoxicity) ECHCG PRE.
The mark [9] stands for this setting: post-emergence, 360 h, POST-emergence, rate 250 g/ha, visual score 15 DAA (100%=total damage, 0%=no damage), read-out: Post-emergence herbicidal activity (percentage phytotoxicity) ALOMY POST.
[10] abbreviates: pre-emergence, 480 h, PRE-emergence, rate 250 g/ha, visual score 20 DAA (100%=total damage, 0%=no damage), read-out: Pre-emergence herbicidal activity (percentage phytotoxicity) ALOMY PRE.
Setting [11] is: post-emergence, 360 h, POST-emergence, rate 250 g/ha, visual score 15 DAA (100%=total damage, 0%=no damage), read-out: Post-emergence herbicidal activity (percentage phytotoxicity) LOLPE POST.
The mark [12] stands for this setting: pre-emergence, 480 h, PRE-emergence, rate 250 g/ha, visual score 20 DAA (100%=total damage, 0%=no damage), read-out: Pre-emergence herbicidal activity (percentage phytotoxicity) LOLPE PRE.
The mark [13] stands for this setting: post-emergence, 360 h, 250 g/ha, post-emergence, 15 DAA, visual assessment (100%=total damage, 0%=no damage), read-out: Post-emergence herbicidal activity (percentage phytotoxicity) AVEFA POST.
Setting [14] is: pre-emergence, 480 h, 250 g/ha, pre-emergence, 20 DAA, visual assessment (100%=total damage, 0%=no damage), read-out: Pre-emergence herbicidal activity (percentage phytotoxicity) AVEFA PRE.
Where [15] appears, read: post-emergence, 360 h, 250 g/ha, post-emergence, 15 DAA, visual assessment (100%=total damage, 0%=no damage), read-out: Post-emergence herbicidal activity (percentage phytotoxicity) ECHCG POST.
Where [16] appears, read: pre-emergence, 480 h, 250 g/ha, pre-emergence, 20 DAA, visual assessment (100%=total damage, 0%=no damage), read-out: Pre-emergence herbicidal activity (percentage phytotoxicity) ECHCG PRE.
Setting [17] is: post-emergence, 360 h, 250 g/ha, post-emergence, 15 DAA, visual assessment (100%=total damage, 0%=no damage), read-out: Post-emergence herbicidal activity (percentage phytotoxicity) ALOMY POST.
[18] abbreviates: pre-emergence, 480 h, 250 g/ha, pre-emergence, 20 DAA, visual assessment (100%=total damage, 0%=no damage), read-out: Pre-emergence herbicidal activity (percentage phytotoxicity) ALOMY PRE.
Where [19] appears, read: post-emergence, 360 h, 250 g/ha, post-emergence, 15 DAA, visual assessment (100%=total damage, 0%=no damage), read-out: Post-emergence herbicidal activity (percentage phytotoxicity) LOLPE POST.
The mark [20] stands for this setting: pre-emergence, 480 h, 250 g/ha, pre-emergence, 20 DAA, visual assessment (100%=total damage, 0%=no damage), read-out: Pre-emergence herbicidal activity (percentage phytotoxicity) LOLPE PRE.

Like-named read-outs stand apart in the source and are kept apart here.

On to `CCc1cc(-n2cc(Cl)cn2)cc(C)c1C1C(=O)CC(CC(=O)NCc2cccc(Cl)c2)C1=O` (stereo not drawn) [Compound B231], for which the pest or weed control at 250 g/ha in experiment [1] (setting [5]) came out at 100%; in experiment [1] (setting [6]), 20%; in experiment [2] (setting [7]), 90%; in experiment [2] (setting [8]), 80%; in experiment [3] (setting [9]) it was 90%; in experiment [3] (setting [10]), 50%. The pest or weed control at 250 g/ha in experiment [4] (setting [11]) amounted to 90%; in experiment [4] (setting [12]), 80%.
On to `CCc1cc(C)cc(C)c1C1C(=O)CC(CC(=O)NCc2cccc(Cl)c2)C1=O` (stereo not drawn) [Compound B251], for which the pest or weed control at 250 g/ha in experiment [1] (setting [5]) worked out at 90%; in experiment [1] (setting [6]), 60%; in experiment [2] (setting [7]) it was 100%; in experiment [2] (setting [8]), 90%; in experiment [3] (setting [9]), 100%; in experiment [3] (setting [10]) it was 90%. The pest or weed control at 250 g/ha in experiment [4] (setting [11]) was found to be 100%; in experiment [4] (setting [12]), 90%.
Take `Cc1cc(-c2ncc(F)cc2F)cc(C)c1C1C(=O)CC(CC(=O)NC2CC2F)C1=O` (stereo not drawn) [Compound B289]: the pest or weed control at 250 g/ha in experiment [1] (setting [5]), in experiment [1] (setting [6]), in experiment [2] (setting [7]), in experiment [2] (setting [8]), in experiment [3] (setting [9]) and in experiment [3] (setting [10]) was 100% in each case. For the same molecule, the pest or weed control at 250 g/ha in experiment [4] (setting [11]) and in experiment [4] (setting [12]) was 100% each time.
For the molecule `Cc1cc(-c2ncc(F)cn2)cc(C)c1C1C(=O)CC(CC(=O)NCC(C)C)C1=O` (stereo not drawn) [Compound B112], the pest or weed control at 250 g/ha in experiment [1] (setting [13]), in experiment [1] (setting [14]), in experiment [2] (setting [15]), in experiment [2] (setting [16]), in experiment [3] (setting [17]) and in experiment [3] (setting [18]) was 100% in each case. Also, the pest or weed control at 250 g/ha in experiment [4] (setting [19]) and in experiment [4] (setting [20]) was 100% each time.
Consider `Cc1cc(-c2ncc(F)cn2)cc(C)c1C1C(=O)CC(CC(=O)NC2CC2F)C1=O` (stereo not drawn) [Compound B293], for which the pest or weed control at 250 g/ha worked out at 100% in experiment [1] (setting [5]); 60% in experiment [1] (setting [6]); 100% in experiment [2] (setting [7]); 90% in experiment [2] (setting [8]); 100% in experiment [3] (setting [9]); 90% in experiment [3] (setting [10]). In addition, the pest or weed control at 250 g/ha in experiment [4] (setting [11]) and in experiment [4] (setting [12]) was 90% each time.
As to `Cc1cc(-c2cnc(Cl)cn2)cc(C)c1C1C(=O)CC(CC(=O)NCc2cccs2)C1=O` (stereo not drawn) [Compound A148], the pest or weed control at 250 g/ha in experiment [1] (post-emergence, 360 h, Rate 250 g/ha, post-emergence, assessed visually 15 DAA, 100%=total damage, 0%=no damage, read-out: Post-emergence herbicidal activity (percentage phytotoxicity) AVEFA POST) was determined as 100%; in experiment [1] (pre-emergence, 480 h, Rate 250 g/ha, pre-emergence, assessed visually 20 DAA, 100%=total damage, 0%=no damage, read-out: Pre-emergence herbicidal activity (percentage phytotoxicity) AVEFA PRE), 80%; in experiment [2] (post-emergence, 360 h, Rate 250 g/ha, post-emergence, assessed visually 15 DAA, 100%=total damage, 0%=no damage, read-out: Post-emergence herbicidal activity (percentage phytotoxicity) ECHCG POST) it was 100%; in experiment [2] (pre-emergence, 480 h, Rate 250 g/ha, pre-emergence, assessed visually 20 DAA, 100%=total damage, 0%=no damage, read-out: Pre-emergence herbicidal activity (percentage phytotoxicity) ECHCG PRE), 100%; in experiment [3] (post-emergence, 360 h, Rate 250 g/ha, post-emergence, assessed visually 15 DAA, 100%=total damage, 0%=no damage, read-out: Post-emergence herbicidal activity (percentage phytotoxicity) ALOMY POST) it was 70%; in experiment [3] (pre-emergence, 480 h, Rate 250 g/ha, pre-emergence, assessed visually 20 DAA, 100%=total damage, 0%=no damage, read-out: Pre-emergence herbicidal activity (percentage phytotoxicity) ALOMY PRE), 70%. Further, the pest or weed control at 250 g/ha in experiment [4] (post-emergence, 360 h, Rate 250 g/ha, post-emergence, assessed visually 15 DAA, 100%=total damage, 0%=no damage, read-out: Post-emergence herbicidal activity (percentage phytotoxicity) LOLPE POST) was 90%; in experiment [4] (pre-emergence, 480 h, Rate 250 g/ha, pre-emergence, assessed visually 20 DAA, 100%=total damage, 0%=no damage, read-out: Pre-emergence herbicidal activity (percentage phytotoxicity) LOLPE PRE), 80%.
For `C#Cc1cc(-c2ncc(F)cc2F)cc(C)c1C1C(=O)CC(CC(=O)NC(C)(C)C)C1=O` (stereo not drawn) [Compound B381, N-tert-butyl-2-[3-[4-(3,5-difluoro-2-pyridyl)-2-ethynyl-6-methyl-phenyl]-2,4-dioxo-cyclopentyl]acetamide], the pest or weed control at 250 g/ha in experiment [1] (post-emergence, 360 h, Rate 250 g/ha, post-emergence, visual assessment 15 DAA, 100%=total damage, 0%=no damage, read-out: Post-emergence herbicidal activity (percentage phytotoxicity) AVEFA POST) was determined as 100%; in experiment [1] (pre-emergence, 480 h, Rate 250 g/ha, pre-emergence, visual assessment 20 DAA, 100%=total damage, 0%=no damage, read-out: Pre-emergence herbicidal activity (percentage phytotoxicity) AVEFA PRE), 70%; in experiment [2] (post-emergence, 360 h, Rate 250 g/ha, post-emergence, visual assessment 15 DAA, 100%=total damage, 0%=no damage, read-out: Post-emergence herbicidal activity (percentage phytotoxicity) ECHCG POST), 100%; in experiment [2] (pre-emergence, 480 h, Rate 250 g/ha, pre-emergence, visual assessment 20 DAA, 100%=total damage, 0%=no damage, read-out: Pre-emergence herbicidal activity (percentage phytotoxicity) ECHCG PRE), 70%; in experiment [3] (post-emergence, 360 h, Rate 250 g/ha, post-emergence, visual assessment 15 DAA, 100%=total damage, 0%=no damage, read-out: Post-emergence herbicidal activity (percentage phytotoxicity) ALOMY POST), 100%; in experiment [3] (pre-emergence, 480 h, Rate 250 g/ha, pre-emergence, visual assessment 20 DAA, 100%=total damage, 0%=no damage, read-out: Pre-emergence herbicidal activity (percentage phytotoxicity) ALOMY PRE) it was 70%. For the same molecule, the pest or weed control at 250 g/ha in experiment [4] (post-emergence, 360 h, Rate 250 g/ha, post-emergence, visual assessment 15 DAA, 100%=total damage, 0%=no damage, read-out: Post-emergence herbicidal activity (percentage phytotoxicity) LOLPE POST) came to 100%; in experiment [4] (pre-emergence, 480 h, Rate 250 g/ha, pre-emergence, visual assessment 20 DAA, 100%=total damage, 0%=no damage, read-out: Pre-emergence herbicidal activity (percentage phytotoxicity) LOLPE PRE) it was 90%.
On to `C=C(C)CNC(=O)CC1CC(=O)C(c2c(C)cc(C)cc2C)C1=O` (stereo not drawn) [Compound B44], for which the pest or weed control at 250 g/ha in experiment [1] (setting [13]) was 90%; in experiment [1] (setting [14]), 60%; in experiment [2] (setting [15]), 90%; in experiment [2] (setting [16]), 90%; in experiment [3] (setting [17]), 90%; in experiment [3] (setting [18]), 90%. Besides, the pest or weed control at 250 g/ha came to 90% in experiment [4] (setting [19]) and 100% in experiment [4] (setting [20]).
On to `C=CC(C)NC(=O)CC1CC(=O)C(c2c(C)cc(-c3ncc(F)cn3)cc2C)C1=O` (stereo not drawn) [Compound B328], for which the pest or weed control at 250 g/ha in experiment [1] (setting [5]), in experiment [1] (setting [6]), in experiment [2] (setting [7]), in experiment [2] (setting [8]), in experiment [3] (setting [9]) and in experiment [3] (setting [10]) was 100% each time. Also, the pest or weed control at 250 g/ha in experiment [4] (setting [11]) and in experiment [4] (setting [12]) was 100% throughout.
